Assay results reported in patent US11957766B2, “HNQO1-activatable fluorescent probe for imaging cancer cells in-vitro and in-vivo” (Texas Tech University System, priority 2019, dated 2024).
Entries after “also recorded” stand apart in the source; their conditions may differ.

Columns and labels:
[1] = Photophysical property of the fluorophore ASM; type: physicochemical
Source text: Design, preparation, and characterization of the NIR-ASM fluorescent probe. Imaging agents emitting near-infrared fluorescence enable deeper penetration with low phototoxicity and high signal-to-background ratios due to minimal tissue auto-fluorescence, which is a prime requirement for in vivo imaging studies.^40,41 Accordingly, the inventors designed an NQO1 activatable near-infrared fluorescent probe (NIR-ASM) by attaching a trimethyl-lock QPA with (E)-2-(3-(4-aminostyryl)-5,5-dimethylcyclohex-2-en-1-ylidene)malononitrile (ASM) for molecular imaging of cancer cells in vivo (FIG. 9A). The fluorophore ASM was used in this study because of its strong NIR fluorescence signal with substantial Stokes shift (˜190 nm), to eliminate background interferences by avoiding reabsorption of emitted photons. […] NQO1 is a ubiquitous cytosolic two-electron reductase that catalyzes the reduction of quinone substrates in the presence of NADH. Upon interaction with NQO1 in the presence of NADH, QPA present in non-fluorescent NIR-ASM undergoes two-electron reduction to form an o-hydroxydihydrocinnamic acid derivative that undergoes rapid lactonization under physiological conditions to yield dihydrocoumarin, 6-hydroxy-4,4,5,7,8-pentamethylchroman-2-one (HPC) along with highly fluorescent ASM. […]

NQO1 [2] = target: T1, NQO1 (Homo sapiens, UniProt P15559); assay: Inhibitory effect of ES936 on hNQO1 activation of NQ-DCP; type: biochemical; conditions: ES936 0-100 nM, enzyme pre-treated, 30 min
T1 sequence (P15559 whole entry): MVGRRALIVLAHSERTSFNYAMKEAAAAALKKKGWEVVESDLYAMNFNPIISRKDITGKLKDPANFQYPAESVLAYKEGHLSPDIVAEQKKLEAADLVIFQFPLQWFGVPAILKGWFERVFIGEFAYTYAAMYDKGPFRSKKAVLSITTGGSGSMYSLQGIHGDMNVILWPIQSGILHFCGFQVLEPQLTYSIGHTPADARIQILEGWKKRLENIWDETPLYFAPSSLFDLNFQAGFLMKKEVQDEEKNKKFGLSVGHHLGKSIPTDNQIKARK
Experimental: Selectivity of NQ-DCP Towards hNQO1. The specificity of NQ-DCP probe towards hNQO1 was studied by determining its reactivity towards various biomolecules such as the glutathione (GSH, 1 mM), aldehyde dehydrogenase 1 (ALDH1A1, 2.5 μg/mL), gamma-glutamyl transferase (GGT, 10 U), glutathione Peroxidase (GPx, 10 U), apurinic/apyrimidinic endonuclease (APE1, 10 U), cystathionine-β-synthase (CBS, 2 μg/mL), cathepsin L (CTSL, 2 μg/mL), glutathione S-transferase (GST-pi, 2 μg/mL), nitroreductase (NTR, 2 μg/mL) and NADH (100 μM) alone or the combination of and NQO1 (2.5 μg/mL). […] To gain more insight into the specificity of the probe towards hNQO1, the enzyme was pre-treated with ES936 (0-100 nM), a well-known hNQO1 inhibitor [39] and then incubated with NQ-DCP.
Evaluation of Inhibitor Efficiency. To evaluate the inhibitory efficiency of ES936 towards hNQO1 under in vitro conditions, different concentrations of ES936 (0-100 nM) incubated with 2.0 μg/mL of NQO1, 100 μM NADPH in PBS with 0.1% BSA (pH 7.4) at 37° C. Fluorescence emission was recorded after 30 min of incubation (λex=420 nm).

hNQO1 in T98G cells = assay: ES936 pretreatment of cells before NQ-DCP, fluorescence microscopy; type: cell-based, human; conditions: 100 nM ES936 for 6 h, then 10 μM NQ-DCP
Experimental: Evaluation of Specificity in Cancer Cells. To show the substrate selectivity of NQ-DCP for hNQO1, T98G cells were pretreated with 100 nM of NQO1 inhibitor ES936 for 6 h and incubated 10 μM of NQ-DCP.
Cell Culture, Fluorescence Imaging, and Flow Cytometry Analysis. Brain tumor cells and astrocytes were grown in Dulbecco's modified Eagle's (DMEM) medium containing 10% Fetal Bovine Serum and 1% penicillin/streptomycin in a humidified atmosphere of 5% CO2 at 37° C. For fluorescence imaging, initially, cells were seeded into 6-well plate and cultured overnight in respective media at 37° C. Media was replaced with fresh medium containing 10 μM NQ-DCP and incubated at 37° C. for 60 min and then the medium was replaced with PBS and live cells were imaged using a fluorescence microscope. For inhibitor study, cells were pretreated with NQO1 inhibitor ES936 (100 nM) for 6 h before adding the NQ-DCP. For determining endogenous hNQO1 activity in cancer cells using flow cytometry, about 10×10^4 cells were incubated with 10 μM of NQ-DCP for 60 min and were analyzed using flow cytometry.

[3] = system: NQO1 in A549 and H460 cells; assay: ES936 pretreatment of cells before NIR-ASM (microscopy and flow cytometry); type: cell-based, human
Experimental: Chemical and genetic approaches confirm the specificity of NIR-ASM for NQO1 in live tumor cells. A fluorescence probe with high sensitivity, simple operation, and excellent specificity will be an asset for the detection of NQO1 in situ. To assess the substrate selectivity of NIR-ASM for NQO1, both A549 and H460 cells were pretreated with 100 nM of NQO1 inhibitor ES936 for 6 h, before incubating with 10 μM NIR-ASM. […] The effect of ES936 on endogenous NQO1 activity and subsequent reactivity with NIR-ASM was also determined by flow cytometry. […] The presence of NQO1 protein in the transfected MDA-MB-231 cells and its absence in the untransfected control was confirmed by immunoblotting (FIG. 13E). Subsequently, the NQO1-negative and positive MDA-MB-231 cell lines were incubated with NIR-ASM and analyzed by fluorescence microscopy and flow cytometry for activation of the probe.
Fluorescence imaging. Both cancer and normal cells were seeded into 6-well plates and cultured overnight in respective media at 37° C. […] Finally, the medium was replaced with PBS and the live cells were imaged using a multiphoton confocal fluorescence microscope (λex/em=488/644 nm). […]
Flow cytometry analysis. The endogenous NQO1 activity of cancer cells and normal cells was determined by flow cytometry after NIR-ASM exposure. […] About 1×10^4 cells were analyzed by flow cytometry (λex=488 nm).

NQO1 [4] = target: T1, NQO1; assay: Effect of NQO1 inhibitor ES936 on NQO1 activation of NIR-ASM; type: biochemical; parameters: purchased Sigma-Aldrich D1515; conditions: ES936 0-100 nM, NQO1 pretreated
Experimental: Selectivity of NIR-ASM. The selectivity of NIR-ASM probe was studied by examining its reactivity towards various biomolecules and antioxidant enzymes such as the glutathione, aldehyde dehydrogenase 1, gamma-glutamyl transferase, glutathione peroxidase, apurinic/apyrimidinic endonuclease, cystathionine-β-synthase, cathepsin L, glutathione S-transferase, NADH alone and the combination of nitroreductase and NQO1.
NQO1 inhibitor efficiency evaluation. NQO1 inhibitor efficiency was evaluated using specific NQO1 inhibitor ES936 under in vitro conditions. 2.5 μg/mL of NQO1 was incubated with different concentrations of ES936 (0-100 nM) in the presence of 100 μM NADH at 37° C. Fluorescence emission was recorded after 30 min of incubation (λex. 460 nm).

Structure (SMILES) | Stokes shift [1] | effect on the fluorescence response of NQ-DCP to hNQO1 (NQO1 [2]) | effect on NQ-DCP fluorescence in cells (hNQO1 in T98G cells) | effect on NIR-ASM fluorescence in cells (microscopy) ([3]; 100 nM ES936 for 6 h, then 10 μM NIR-ASM) | effect on NIR-ASM induced fluorescence intensity (flow cytometry) ([3]; 100 nM ES936 pretreated tumor cells) | effect on the fluorescence response of NIR-ASM to NQO1 (NQO1 [4])
CC1(C)CC(/C=C/c2ccc(N)cc2)=CC(=C(C#N)C#N)C1 [ASM, (E)-2-(3-(4-aminostyryl)-5,5-dimethylcyclohex-2-en-1-ylidene) malononitrile] | ~190 nm |  |  |  |  | 
COC1=CC(=O)c2c(c(COc3ccc([N+](=O)[O-])cc3)c(C)n2C)C1=O [ES936] |  | effectively suppressed the fluorescence response in a concentration-dependent manner; also recorded: completely blocked the NQ-DCP fluorescence | completely blocked the NQ-DCP fluorescence | completely blocked the NIR-ASM fluorescence | significantly decreased | effectively suppressed the fluorescence response in a concentration-dependent fashion
